ChEMBL document CHEMBL1130066, “Toward a novel metal-based chemotherapy against tropical diseases. 3. Synthesis and antimalarial activity in vitro and in vivo of the new gold-chloroquine complex [Au(PPh3)(CQ)]PF6” (J Med Chem, 1997)

Key:
[1] = tested on: Plasmodium falciparum; assay: In vitro growth inhibition as IC50 against chloroquine-resistant Plasmodium falciparum FcB1; assay type: functional, organism-based
[2] = tested on: Plasmodium falciparum; assay: In vitro growth inhibition as IC50 against chloroquine-resistant Plasmodium falciparum FcB2; assay type: functional, organism-based
[3] = tested on: Mus musculus; assay: In vivo activity against Plasmodium berghei parasitaemia.; assay type: functional, organism-based
[4] = tested on: Mus musculus; assay: In vivo activity against Plasmodium berghei parasitaemia; assay type: functional

Compound: 4N-(4-diethylamino-1-methylbutyl)-7-chloro-4-quinolinamine 1-N-[Au(PPh3)] compound with PF6- [listing 1 of 2 here]
- IC50 [1]: 5.1 nM
- IC50 [2]: 23 nM

Compound: 4N-(4-diethylamino-1-methylbutyl)-7-chloro-4-quinolinamine 1-N-[Au(PPh3)] compound with PF6- [listing 2 of 2 here]
- Parasitemia [3]: 7%

Compound: CCN(CC)CCCC(C)Nc1ccnc2cc(Cl)ccc12.O=P(O)(O)O.O=P(O)(O)O (centres undefined) [CHLOROQUINE PHOSPHATE]
- Parasitemia [4]: 25%
